Measured values reported in patent US20230416262A1, “TRPML MODULATORS” (Casma Therapeutics, Inc., priority 2020, published 2023).

tested on: THP-1 cells; experiment: Lamp1 lysosomal exocytosis assay; assay type: cell-based; details: Homo sapiens, 55 min, 55 min incubation, top dose 20 μM
Method: For the Lamp1 lysosomal exocytosis assay, a human monocytic suspension cell line (THP-1) was used. Cells in culture should be used between a density of […] and 1.2e6/mL on the day of the assay. For each 96-well assay plate to be used, pellet 11e6 THP-1 cells at 330×g for 5 min in a 50 mL conical tube, aspirate media and resuspend in 22 mLs of RPMI 1640/10% FBS media for a final cell concentration of 5e5/mL. Prior to addition of cells to the assay plate, perform a 7 pt dilution curve using a top dose of compound at 2 mM and use a 3-fold serial dilution, the 8th point is DMSO only. Final top dose of compound in the assay was 20 μM. 2 μL of each serial dilution was transferred to a new 96-well v-bottom assay plate. 198 μL of cells (1e5 total cells/well) was prepared as above in each well of the assay plate and incubated at 37° C./5% CO2/95% RH for 55 min. After the 55 min incubation, cells were pelleted for 5 min at 4 C at 400×g in a tabletop centrifuge. The media was separated from the cell pellets in the plate. The pellets were washed using 200 μL ice cold buffer (PBS Ca^++/Mg^++ containing 2% final BSA and 80 μM final Dynasore). Cells were pelleted again at 400×g-5 min in a 4° C. tabletop centrifuge. Buffer was separated from cells. Each well was suspended in 75 uL Lamp1-PE antibody buffer (PBS Ca^++/Mg^++ containing 2% final BSA with 80 uM final Dynasore and 1:800 final dilution of Lamp 1-PE labeled antibody). After a 45 min antibody incubation on ice, 25 μL of sytox green was added (I drop/mL buffer), and each well was mixed and incubated for an additional 15 min on ice. After the 15 min sytox green incubation, 100 μL of ice-cold buffer (PBS Ca^++/Mg^++ containing 2% final BSA and 80 uM final Dynasore) was added and cells were pelleted for 5 min at 400×g. The buffer was removed and each sample was resuspended in 100 uL of ice-cold buffer (PBS Ca^++/Mg^++ containing 2% final BSA and 80 μM final Dynasore). FACs gating strategy: FACS analyze for sytox green (A488) and Lamp1-PE (DsRed). First gate against FSC-A/SSC-A to find non-fragmented or ‘live’ THP-1 cells. Next gate against FITC-A/FSC-A to omit sytox green positive cells. Then gate for FSC-A/FSC-H to remove any doublet cells. The last gate was a histogram for PE. The statistics for ‘count’ and ‘geometric mean fluorescence intensity’ (gWFI) for PE were repoted on the last gate.
Compounds having an activity designated as “++++” provided an exocytosis readout of ≤0.50 μM; compounds having an activity designated as “+++” provided an exocytosis readout of 0.51-1.00 μM; compounds having an activity designated as “++” provided an exocytosis readout of 1.01-5.00 μM; and compounds having an activity designated as “+” provided an exocytosis readout of ≥5.01 μM

EC50, ≥ 5.01 µM:
Cn1cc(CNC(=O)N2CCC3(CC2)CN(S(=O)(=O)c2ccc(C(F)F)cc2)c2ccccc23)cn1 [Compound I-209, 1-((4-(difluoromethyl)phenyl)sulfonyl)-N-((1-methyl-1H-pyrazol-4-yl)methyl)spiro[indoline-3,4′-piperidine]-1′-carboxamide]
O=C(Nc1cncc(F)c1)N1CCC2(CC1)CN(S(=O)(=O)c1ccc(C(F)F)cc1)c1ccccc12 [Compound I-210, 1-((4-(difluoromethyl)phenyl)sulfonyl)-N-(5-fluoropyridin-3-yl)spiro[indoline-3,4′-piperidine]-1′-carboxamide]
Cc1cc(CNC(=O)N2CCC3(CC2)CN(S(=O)(=O)c2ccc(C(F)F)cc2)c2ccccc23)no1 [Compound I-211, 1-((4-(difluoromethyl)phenyl)sulfonyl)-N-((5-methylisoxazol-3-yl)methyl)spiro[indoline-3,4′-piperidine]-1′-carboxamide]
Cc1cc(CNC(=O)N2CCC3(CC2)CN(S(=O)(=O)c2ccc(C(F)F)cc2)c2ccccc23)on1 [Compound I-212]
Cc1noc(C)c1NC(=O)N1CCC2(CC1)CN(S(=O)(=O)c1ccc(C(F)F)cc1)c1ccccc12 [Compound I-213, 1-((4-(difluoromethyl)phenyl)sulfonyl)-N-(3,5-dimethylisoxazol-4-yl)spiro[indoline-3,4′-piperidine]-1′-carboxamide]
O=C(NCCC(F)(F)F)N1CCC2(CC1)CN(S(=O)(=O)c1ccc(C(F)F)cc1)c1ccccc12 [Compound I-214, 1-((4-(difluoromethyl)phenyl)sulfonyl)-N-(3,3,3-trifluoropropyl)spiro[indoline-3,4′-piperidine]-1′-carboxamide]
O=C(NCC1CCOCC1)N1CCC2(CC1)CN(S(=O)(=O)c1ccc(C(F)F)cc1)c1ccccc12 [Compound I-215, 1-((4-(difluoromethyl)phenyl)sulfonyl)-N-((tetrahydro-2H-pyran-4-yl)methyl)spiro[indoline-3,4′-piperidine]-1′-carboxamide]
COc1ccc(NC(=O)N2CCC3(CC2)CN(S(=O)(=O)c2ccc(C(F)F)cc2)c2ccccc23)cn1 [Compound I-216, 1-((4-(difluoromethyl)phenyl)sulfonyl)-N-(6-methoxypyridin-3-yl)spiro[indoline-3,4′-piperidine]-1′-carboxamide]
Cc1nn(C)c(C)c1NC(=O)N1CCC2(CC1)CN(S(=O)(=O)c1ccc(C(F)F)cc1)c1ccccc12 [Compound I-217, 1-((4-(difluoromethyl)phenyl)sulfonyl)-N-(1,3,5-trimethyl-1H-pyrazol-4-yl)spiro[indoline-3,4′-piperidine]-1′-carboxamide]
O=C(NC1CCC(F)(F)CC1)N1CCC2(CC1)CN(S(=O)(=O)c1ccc(C(F)F)cc1)c1ccccc12 [Compound I-218, N-(4,4-difluorocyclohexyl)-1-((4-(difluoromethyl)phenyl)sulfonyl)spiro[indoline-3,4′-piperidine]-1′-carboxamide]
O=C(NC1CCS(=O)(=O)CC1)N1CCC2(CC1)CN(S(=O)(=O)c1ccc(C(F)F)cc1)c1ccccc12 [Compound I-224, 1-((4-(difluoromethyl)phenyl)sulfonyl)-N-(1,1-dioxidotetrahydro-2H-thiopyran-4-yl)spiro[indoline-3,4′-piperidine]-1′-carboxamide]
Cn1cc(NC(=O)N2CCC3(CC2)CN(S(=O)(=O)c2ccc(C(F)F)cc2)c2ccccc23)c(=O)n(C)c1=O [Compound I-229, 1-((4-(difluoromethyl)phenyl)sulfonyl)-N-(1,3-dimethyl-2,4-dioxo-1,2,3,4-tetrahydropyrimidin-5-yl)spiro[indoline-3,4′-piperidine]-1′-carboxamide]
O=C(NCc1ccccn1)C1CCC2(CC1)CN(S(=O)(=O)c1ccc(C(F)F)cc1)c1ccccc12 (stereo not shown) [Compound I-231, 1′-((4-(difluoromethyl)phenyl)sulfonyl)-N-(pyridin-2-ylmethyl)spiro[cyclohexane-1,3′-indoline]-4-carboxamide]
O=C(NCc1cccnc1)C1CCC2(CC1)CN(S(=O)(=O)c1ccc(C(F)F)cc1)c1ccccc12 (stereo not shown) [Compound I-232, 1′-((4-(difluoromethyl)phenyl)sulfonyl)-N-(pyridin-3-ylmethyl)spiro[cyclohexane-1,3′-indoline]-4-carboxamide]
O=C(NCc1ccncc1)C1CCC2(CC1)CN(S(=O)(=O)c1ccc(C(F)F)cc1)c1ccccc12 (stereo not shown) [Compound I-233, 1′-((4-(difluoromethyl)phenyl)sulfonyl)-N-(pyridin-4-ylmethyl)spiro[cyclohexane-1,3′-indoline]-4-carboxamide]
O=C(NCC1CC1)C1CCC2(CC1)CN(S(=O)(=O)c1ccc(C(F)F)cc1)c1ccccc12 (stereo not shown) [Compound I-236, N-(cyclopropylmethyl)-1′-((4-(difluoromethyl)phenyl)sulfonyl)spiro[cyclohexane-1,3′-indoline]-4-carboxamide]
O=C(C1CCC2(CC1)CN(S(=O)(=O)c1ccc(C(F)F)cc1)c1ccccc12)N1CCCC1 (stereo not shown) [Compound I-237, (1′-((4-(difluoromethyl)phenyl)sulfonyl)spiro[cyclohexane-1,3′-indolin]-4-yl)(pyrrolidin-1-yl)methanone]
O=C(C1CCC2(CC1)CN(S(=O)(=O)c1ccc(C(F)F)cc1)c1ccccc12)N1CCOCC1 (stereo not shown) [Compound I-238, (1′-((4-(difluoromethyl)phenyl)sulfonyl)spiro[cyclohexane-1,3′-indolin]-4-yl)(morpholino)methanone]
O=C(C1CCC2(CC1)CN(S(=O)(=O)c1ccc(C(F)F)cc1)c1ccccc12)N1CCC(F)(F)CC1 (stereo not shown) [Compound I-239, (1′-((4-(difluoromethyl)phenyl)sulfonyl)spiro[cyclohexane-1,3′-indolin]-4-yl)(4,4-difluoropiperidin-1-yl)methanone]
O=C(C1CCC2(CC1)CN(S(=O)(=O)c1ccc(C(F)F)cc1)c1ccccc12)N1CCC2(CCOC2)C1 (stereo not shown) [Compound I-240, (1′-((4-(difluoromethyl)phenyl)sulfonyl)spiro[cyclohexane-1,3′-indolin]-4-y1)(2-oxa-7-azaspiro[4.4]nonan-7-yl)methanone]
CCn1cc(CNC(=O)C2CCC3(CC2)CN(S(=O)(=O)c2ccc(C(F)F)cc2)c2ccccc23)cn1 (stereo not shown) [Compound I-241, 1′-((4-(difluoromethyl)phenyl)sulfonyl)-N-((1-ethyl-1H-pyrazol-4-yl)methyl)spiro[cyclohexane-1,3′-indoline]-4-carboxamide]
CN(Cc1ccon1)C(=O)C1CCC2(CC1)CN(S(=O)(=O)c1ccc(C(F)F)cc1)c1ccccc12 (stereo not shown) [Compound I-242, 1′-((4-(difluoromethyl)phenyl)sulfonyl)-N-(isoxazol-3-ylmethyl)-N-methylspiro[cyclohexane-1,3′-indoline]-4-carboxamide]
CN(C(=O)C1CCC2(CC1)CN(S(=O)(=O)c1ccc(C(F)F)cc1)c1ccccc12)c1ccnn1C (stereo not shown) [Compound I-243, 1′-((4-(difluoromethyl)phenyl)sulfonyl)-N-methyl-N-(1-methyl-1H-pyrazol-5-yl)spiro[cyclohexane-1,3′-indoline]-4-carboxamide]
O=C(C1CCC2(CC1)CN(S(=O)(=O)c1ccc(C(F)F)cc1)c1ccccc12)N1CCC2(COC2)C1 (stereo not shown) [Compound I-244, (1′-((4-(difluoromethyl)phenyl)sulfonyl)spiro[cyclohexane-1,3′-indolin]-4-yl)(2-oxa-6-azaspiro[3.4]octan-6-yl)methanone]
CN(C(=O)C1CCC2(CC1)CN(S(=O)(=O)c1ccc(C(F)F)cc1)c1ccccc12)c1nccn1C (stereo not shown) [Compound I-245, 1′-((4-(difluoromethyl)phenyl)sulfonyl)-N-methyl-N-(1-methyl-1H-imidazol-2-yl)spiro[cyclohexane-1,3′-indoline]-4-carboxamide]
